Drawing on patent publication US7217730B2, “Method for the use of pyranoindole derivatives to treat infection with Hepatitis C virus” (Wyeth, priority 2002, dated 2007), this text covers inhibition and IC50 for 32 compounds.

This assay addresses T1, NS5B from the BK strain (genotype 1b) (Hepatitis C virus genotype 1b, UniProt P26663).
T1 construct: NS5B from the BK strain (genotype 1b) is expressed in E. coli as a protein in which the 21 C-terminal amino acids are replaced; made in house; host or cells: E. coli
The assay is described as follows: Hepatitis C polymerase inhibition, NS5B BK strain, 33P-GTP filter assay. In kind it is biochemical. The conditions noted are these: Table 1A; for inhibition at 20 µM: 20 μM compound, read-out: HCV pol % inh at 20 μM; for IC50: NS5B BK strain, read-out: HCV pol BK IC50. In outline:
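E. coli-expressed NS5B (BK, genotype 1b) with the 21 C-terminal residues replaced by a linker-His6 tag was preincubated with compound for 15 min at room temperature. It then extended a hairpin-primed heteropolymeric RNA (~3 nM, ~760 nt product) with α-[33P]-GTP for 2 h at 22–25° C. The reaction was stopped with EDTA, and incorporated label was counted on filters.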

Some results are limits rather than exact numbers.

The IC50 is the concentration needed to halve the response being measured.

T1 sequence (P26663 2420-2989): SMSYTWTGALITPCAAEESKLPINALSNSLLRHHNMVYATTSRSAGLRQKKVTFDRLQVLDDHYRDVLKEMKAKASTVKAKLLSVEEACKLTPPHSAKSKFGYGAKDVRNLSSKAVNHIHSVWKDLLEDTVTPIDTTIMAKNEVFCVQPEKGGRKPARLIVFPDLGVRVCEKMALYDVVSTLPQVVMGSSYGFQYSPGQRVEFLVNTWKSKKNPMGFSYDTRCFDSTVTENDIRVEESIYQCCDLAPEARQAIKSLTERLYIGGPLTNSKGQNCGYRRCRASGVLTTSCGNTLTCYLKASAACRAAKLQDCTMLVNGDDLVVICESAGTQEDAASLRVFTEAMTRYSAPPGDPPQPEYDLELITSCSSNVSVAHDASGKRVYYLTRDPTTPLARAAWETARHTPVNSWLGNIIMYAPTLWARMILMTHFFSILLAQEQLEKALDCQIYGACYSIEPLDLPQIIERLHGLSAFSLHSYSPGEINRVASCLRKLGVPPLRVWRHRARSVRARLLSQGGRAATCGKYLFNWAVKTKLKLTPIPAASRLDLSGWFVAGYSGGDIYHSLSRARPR

As for `CCCC1(CC(=O)O)OCCc2c1[nH]c1c(Cl)ccc(C(F)(F)F)c21` (stereo not drawn) [Example 131, [8-chloro-1-propyl-5-(trifluoromethyl)-1,3,4,9-tetrahydropyrano[3,4-b]indol-1-yl]acetic acid], the inhibition at 20 µM came out at 93% and the IC50 was determined as 0.32 µM.
Regarding `CC(C)C1(CC(=O)O)OCCc2c1[nH]c1c(Cl)ccc(C(F)(F)F)c21` (stereo not drawn) [Example 132, [8-chloro-1-isopropyl-5-(trifluoromethyl)-1,3,4,9-tetrahydropyrano[3,4-b]indol-1-yl]acetic acid], the inhibition at 20 µM worked out at 78% and the half-inhibitory concentration (IC50) was 9.5 µM.
As for `CCCCC1(CC(=O)O)OCCc2c1[nH]c1c(Cl)ccc(C(F)(F)F)c21` (stereo not drawn) [Example 133, [1-butyl-8-chloro-5-(trifluoromethyl)-1,3,4,9-tetrahydropyrano[3,4-b]indol-1-yl]acetic acid], the inhibition at 20 µM was determined as 88% and the IC50 was determined as 0.7 µM.
Consider `C/C=C/CCC1(CC(=O)O)OCCc2c1[nH]c1c(Cl)ccc(C(F)(F)F)c21` (stereo not drawn) [Example 134, [8-chloro-1-[(3E)-pent-3-enyl]-5-(trifluoromethyl)-1,3,4,9-tetrahydropyrano[3,4-b]indol-1-yl]acetic acid], for which the inhibition at 20 µM is 28% and the IC50 was > 20 µM.
As for `O=C(O)CC1(c2ccccc2)OCCc2c1[nH]c1c(Cl)ccc(C(F)(F)F)c21` (stereo not drawn) [Example 135, [8-chloro-1-phenyl-5-(trifluoromethyl)-1,3,4,9-tetrahydropyrano[3,4-b]indol-1-yl]acetic acid], the inhibition at 20 µM amounted to 55% and the IC50 is > 20 µM.
For `O=C(O)CC1(c2ccoc2)OCCc2c1[nH]c1c(Cl)ccc(C(F)(F)F)c21` (stereo not drawn) [Example 136, [8-chloro-1-(3-furyl)-5-(trifluoromethyl)-1,3,4,9-tetrahydropyrano[3,4-b]indol-1-yl]acetic acid], in that order: 81% and 4.3 µM.
For the compound `Cc1ccc(C)c2c3c([nH]c12)C(C)(CC(=O)O)OCC3` (stereo not drawn) [Example 137, (1,5,8-trimethyl-1,3,4,9-tetrahydropyrano[3,4-b]indol-1-yl)acetic acid], the inhibition at 20 µM turned out to be 5% and the half-inhibitory concentration (IC50) was > 20 µM.
Regarding `CCC1(CC(=O)O)OCCc2c1[nH]c1c(C)ccc(C)c21` (stereo not drawn) [Example 138, (1-ethyl-5,8-dimethyl-1,3,4,9-tetrahydropyrano[3,4-b]indol-1-yl)acetic acid], the inhibition at 20 µM is 38% and the IC50 was > 20 µM.
With `CCCC1(CC(=O)O)OCCc2c1[nH]c1c(C)ccc(C)c21` (stereo not drawn) [Example 139, (5,8-dimethyl-1-propyl-1,3,4,9-tetrahydropyrano[3,4-b]indol-1-yl)acetic acid], the inhibition at 20 µM was found to be 40% and the half-inhibitory concentration (IC50) amounted to 8.3 µM.
As to `Cc1ccc(F)c2c3c([nH]c12)C(C)(CC(=O)O)OCC3` (stereo not drawn) [Example 140, (5-fluoro-1,8-dimethyl-1,3,4,9-tetrahydropyrano[3,4-b]indol-1-yl)acetic acid], the inhibition at 20 µM came to 28% and the IC50 was > 20 µM.
For `CCCC1(CC(=O)O)OCCc2c1[nH]c1c(C)ccc(F)c21` (stereo not drawn) [Example 141, (5-fluoro-8-methyl-1-propyl-1,3,4,9-tetrahydropyrano[3,4-b]indol-1-yl)acetic acid], the inhibition at 20 µM stood at 79% and the concentration for half-maximal inhibition (IC50) stood at 1.4 µM.
Turning to `CCC1(CC(=O)O)OCCc2c1[nH]c1c(C)ccc(F)c21` (stereo not drawn) [Example 142, (1-ethyl-5-fluoro-1,3,4,9-tetrahydro-8-methyl-pyrano[3,4-b]indol-1-yl)acetic acid], the inhibition at 20 µM came out at 39% and the IC50 worked out at 19.8 µM.
On the same counts, the results for `Cc1ccc(F)c2c3c([nH]c12)C(CC(=O)O)(C(C)C)OCC3` (stereo not drawn) [Example 143, (5-fluoro-1-isopropyl-8-methyl-1,3,4,9-tetrahydropyrano[3,4-b]indol-1-yl)acetic acid] are 56% and 16.5 µM.
On the same counts, the results for `CCCCC1(CC(=O)O)OCCc2c1[nH]c1c(C)ccc(F)c21` (stereo not drawn) [Example 144, (1-butyl-5-fluoro-8-methyl-1,3,4,9-tetrahydropyrano[3,4-b]indol-1-yl)acetic acid] are 73% and 6 µM.
As to `C/C=C/CCC1(CC(=O)O)OCCc2c1[nH]c1c(C)ccc(F)c21` (stereo not drawn) [Example 145, {5-fluoro-8-methyl-1-[(3E)-pent-3-enyl]-1,3,4,9-tetrahydropyrano[3,4-b]indol-1-yl}acetic acid], the inhibition at 20 µM stood at 20% and the IC50 is > 20 µM.
`Cc1ccc(F)c2c3c([nH]c12)C(CC(=O)O)(c1ccccc1)OCC3` (stereo not drawn) [Example 146, (5-fluoro-8-methyl-1-phenyl-1,3,4,9-tetrahydropyrano[3,4-b]indol-1-yl)acetic acid]: the inhibition at 20 µM worked out at 45% and the IC50 was > 20 µM.
On to `CCCC1(CC(=O)O)OCCc2c1[nH]c1c(F)ccc(-c3ccccc3)c21` (stereo not drawn) [Example 147, (8-fluoro-5-phenyl-1-propyl-1,3,4,9-tetrahydropyrano[3,4-b]indol-1-yl)acetic acid], for which the inhibition at 20 µM turned out to be 34%.
Take `CCCC1(CC(=O)O)OCCc2c1[nH]c1c(F)ccc(-c3ccc(C)cc3)c21` (stereo not drawn) [Example 148, [8-fluoro-5-(4-methylphenyl)-1-propyl-1,3,4,9-tetrahydropyrano[3,4-b]indol-1-yl]acetic acid]: the inhibition at 20 µM is 47% and the IC50 was > 20 µM.
Regarding `CCCC1(CC(=O)O)OCCc2c1[nH]c1c(F)ccc(-c3ccc(OC)cc3)c21` (stereo not drawn) [Example 149, [8-fluoro-5-(4-methoxyphenyl)-1-propyl-1,3,4,9-tetrahydropyrano[3,4-b]indol-1-yl]acetic acid], the inhibition at 20 µM is < 11% and the half-inhibitory concentration (IC50) is 16 µM.
On the same counts, the results for `CCCC1(CC(=O)O)OCCc2c1[nH]c1c(F)ccc(-c3ccc(C(F)(F)F)cc3)c21` (stereo not drawn) [Example 150, {8-fluoro-1-propyl-5-[4-(trifluoromethyl)phenyl]-1,3,4,9-tetrahydropyrano[3,4-b]indol-1-yl}acetic acid] are < 37% and 9 µM.
Turning to `CCCC1(CC(=O)O)OCCc2c1[nH]c1c(F)ccc(-c3cccc(N)c3)c21` (stereo not drawn) [Example 151, [5-(3-aminophenyl)-8-fluoro-1-propyl-1,3,4,9-tetrahydropyrano[3,4-b]indol-1-yl]acetic acid], the inhibition at 20 µM is 34% and the 50% inhibitory concentration (IC50) was > 20 µM.
For `CCCC1(CC(=O)O)OCCc2c1[nH]c1c(F)ccc(Br)c21` (stereo not drawn) [Example 152, (5-bromo-8-fluoro-1-propyl-1,3,4,9-tetrahydropyrano[3,4-b]indol-1-yl)acetic acid], in that order: 87% and 1 µM.
In the case of `CCCC1(CC(=O)O)OCCc2c1[nH]c1c(C)ccc(Br)c21` (stereo not drawn) [Example 153, (5-bromo-8-methyl-1-propyl-1,3,4,9-tetrahydropyrano[3,4-b]indol-1-yl)acetic acid], the inhibition at 20 µM worked out at 93% and the IC50 is 0.3 µM.
As to `CC1(CC(=O)O)OCCc2c1[nH]c1c(Cl)cc(Cl)c(Cl)c21` (stereo not drawn) [Example 154, (5,6,8-trichloro-1-methyl-1,3,4,9-tetrahydropyrano[3,4-b]indol-1-yl)acetic acid], the inhibition at 20 µM was 22% and the IC50 was 22.4 µM.
As to `CCC1(CC(=O)O)OCCc2c1[nH]c1c(Cl)cc(Cl)c(Cl)c21` (stereo not drawn) [Example 155, (5,6,8-trichloro-1-ethyl-1,3,4,9-tetrahydropyrano[3,4-b]indol-1-yl)acetic acid], the inhibition at 20 µM turned out to be 84% and the 50% inhibitory concentration (IC50) stood at 0.47 µM.
Consider `CCCC1(CC(=O)O)OCCc2c1[nH]c1c(Cl)cc(Cl)c(Cl)c21` (stereo not drawn) [Example 156, (5,6,8-trichloro-1-propyl-1,3,4,9-tetrahydropyrano[3,4-b]indol-1-yl)acetic acid], for which the inhibition at 20 µM is 88% and the half-maximal inhibitory concentration (IC50) turned out to be 0.08 µM.
With `CC(C)C1(CC(=O)O)OCCc2c1[nH]c1c(Cl)cc(Cl)c(Cl)c21` (stereo not drawn) [Example 157, (5,6,8-trichloro-1-isopropyl-1,3,4,9-tetrahydropyrano[3,4-b]indol-1-yl)acetic acid], the inhibition at 20 µM turned out to be 89% and the IC50 is 0.6 µM.
Regarding `CCCCC1(CC(=O)O)OCCc2c1[nH]c1c(Cl)cc(Cl)c(Cl)c21` (stereo not drawn) [Example 158, (1-butyl-5,6,8-trichloro-1,3,4,9-tetrahydropyrano[3,4-b]indol-1-yl)acetic acid], the inhibition at 20 µM was determined as 91% and the half-maximal inhibitory concentration (IC50) is 0.28 µM.
On the same counts, the results for `C/C=C/CCC1(CC(=O)O)OCCc2c1[nH]c1c(Cl)cc(Cl)c(Cl)c21` (stereo not drawn) [Example 159, {5,6,8-trichloro-1-[(3E)-pent-3-enyl]-1,3,4,9-tetrahydropyrano[3,4-b]indol-1-yl}acetic acid] are 36% and > 20 µM.
On the same counts, the results for `O=C(O)CC1(c2ccccc2)OCCc2c1[nH]c1c(Cl)cc(Cl)c(Cl)c21` (stereo not drawn) [Example 160, (5,6,8-trichloro-1-phenyl-1,3,4,9-tetrahydropyrano[3,4-b]indol-1-yl)acetic acid] are 15% and > 20 µM.
As for `O=C(O)CC1(c2ccc(C(=O)O)cc2)OCCc2c1[nH]c1c(Cl)cc(Cl)c(Cl)c21` (stereo not drawn) [Example 161, 4-[1-(carboxymethyl)-5,6,8-trichloro-1,3,4,9-tetrahydropyrano[3,4-b]indol-1-yl]benzoic acid], the inhibition at 20 µM worked out at 74% and the half-maximal inhibitory concentration (IC50) stood at 0.3 µM.
Consider `O=C(O)CC1(c2ccoc2)OCCc2c1[nH]c1c(Cl)cc(Cl)c(Cl)c21` (stereo not drawn) [Example 162, [5,6,8-trichloro-1-(3-furyl)-1,3,4,9-tetrahydropyrano[3,4-b]indol-1-yl]acetic acid], for which the inhibition at 20 µM was 73% and the IC50 was found to be 2.4 µM.
